In this assay the test system is central memory T cells. Description: Central memory T cell cultured ELISPOT, phase 2 trial in advanced NSCLC. In kind it is in vivo, human. The protocol:
CTL Immune responses measured though cultured Elispot. The immunogenicity was measured in Phase 2 clinical trial on cryopreserved PBMC from each test sample were thawed in 5% human culture medium (RPMI-1640 medium with 25 mM HEPES, supplemented with 5% human AB serum, 4 mM L-glutamine, 0.5 mM sodium pyruvate, 0.1 mM MEM non-essential amino acids, 100 μg/ml streptomycin, and 100 U/ml penicillin) containing 30 μg/ml DNAase. After centrifugation for 5 minutes at 1200 rpm, the cell pellets were resuspended in 5% human culture medium and washed 2 times. For the central Memory T cell cultured ELISPOT assay, 2×10^6/ml PBMC were placed in replicate wells in a 48-well plates and stimulated for 10 days with 10 μg/ml of each peptide. As a positive control, PBMC were also stimulated with a pool of recall viral peptides. Human rIL2 (10 U/ml) was added to the peptide-stimulated cultures at day 1, day 4 and day 7. After 10 days the stimulated cells were harvested and plated at a concentration of 5×10^4/well. Assay wells also received irradiated autologous PBMC (1×10^5/well) and 10 μg/ml peptide, either the vaccine peptide, irrelevant peptide or positive control peptides. Cells stimulated in vitro with each analog epitope were also tested against the corresponding wild-type epitope.
Data analysis and acceptance criteria. Mean and standard deviation (SD) of spots in replicate wells were calculated in all assays by transferring raw ELISPOT data from each experiment to an Excel-based computer program. Positive vaccine-induced T-cell responses were determined according to the criteria described below.
Acceptance Criteria for peptide-Induced specific T-cell response through central memory T cells: The positive criteria for CTL responses used in the phase 2 trial was identical to the criteria in the phase 1/2 trials which was established prospectively after analyzing the variability of pre-treatment responses in patients against each vaccine epitope and the irrelevant HBV control epitope. A positive peptide-induced CTL/T memory response to a given epitope met all of the following conditions: 1) was greater than 5 SFC above the irrelevant epitope response, 2) was greater than the mean SFC of the irrelevant epitope response, plus 2 SD, and 3) was two-fold greater than the SFC response in the pre-vaccination sample from the same patient, plus 2 SD. The inclusion of “plus two standard deviations” was used to accommodate the assay variability and served to increase the criteria stringency.

Turning to RLLQETELV [HER2-689-WT], the “% of patients with positive CTL/central memory T cell response” value reads like this: (phase 2, month 9) 0%; (phase 2, month 12) 0%; (phase 2, week 9) 36%; (phase 2, week 18) 27%; (phase 2, week 30) 0%. In addition, the “patients with positive CTL/central memory T cell response / patients tested” value was 0/7 (phase 2, month 9); 0/4 (phase 2, month 12); 4/11 (phase 2, week 9); 3/11 (phase 2, week 18); 0/6 (phase 2, week 30).

Source of the values: patent publication US11191820B2, “Method for inducing early T memory response with short peptides anti-tumor vaccine” (OSE IMMUNOTHERAPEUTICS, priority 2015, dated 2021).
